The sequences below were run against T1, human TLR7 (Homo sapiens, UniProt Q9NYK1) (assay: HEK-TLR7 NF-κB-luciferase reporter, R848 stimulation). Conditions: ASO 100 nM; relative to R848 only, given as fraction.
T1 construct: HA; host or cells: 293XL-hTLR7-HA (HEK293)
T1 sequence (Q9NYK1 27-1049): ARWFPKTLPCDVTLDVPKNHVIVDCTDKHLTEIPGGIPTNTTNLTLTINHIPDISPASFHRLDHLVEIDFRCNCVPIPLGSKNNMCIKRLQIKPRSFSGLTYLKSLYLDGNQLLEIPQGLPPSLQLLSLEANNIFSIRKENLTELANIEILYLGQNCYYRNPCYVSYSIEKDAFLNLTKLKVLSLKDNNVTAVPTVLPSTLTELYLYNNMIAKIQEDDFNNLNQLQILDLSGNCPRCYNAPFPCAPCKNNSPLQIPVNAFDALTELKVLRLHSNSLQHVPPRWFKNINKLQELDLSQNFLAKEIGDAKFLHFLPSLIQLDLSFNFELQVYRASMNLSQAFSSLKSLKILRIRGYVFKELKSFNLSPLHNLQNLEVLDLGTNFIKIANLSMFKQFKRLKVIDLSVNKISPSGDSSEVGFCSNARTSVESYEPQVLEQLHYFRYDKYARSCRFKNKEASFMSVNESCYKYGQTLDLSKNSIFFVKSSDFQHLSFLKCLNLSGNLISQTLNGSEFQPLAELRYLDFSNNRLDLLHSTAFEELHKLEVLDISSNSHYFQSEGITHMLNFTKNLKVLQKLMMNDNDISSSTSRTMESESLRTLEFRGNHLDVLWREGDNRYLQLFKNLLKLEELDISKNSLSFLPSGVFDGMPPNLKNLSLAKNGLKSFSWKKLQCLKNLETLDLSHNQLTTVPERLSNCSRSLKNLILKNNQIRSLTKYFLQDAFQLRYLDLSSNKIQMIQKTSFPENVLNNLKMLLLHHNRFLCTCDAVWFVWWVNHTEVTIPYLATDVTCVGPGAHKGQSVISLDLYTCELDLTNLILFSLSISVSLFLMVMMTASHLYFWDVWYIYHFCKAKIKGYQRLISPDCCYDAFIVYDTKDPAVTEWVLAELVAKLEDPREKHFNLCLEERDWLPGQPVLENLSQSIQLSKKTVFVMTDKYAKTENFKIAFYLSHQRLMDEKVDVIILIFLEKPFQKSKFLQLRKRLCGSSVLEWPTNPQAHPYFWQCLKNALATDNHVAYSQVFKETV
Format: cell-based

Point of comparison: “TGGTGGCCACCCATCT (antisense; LNA-modified, pattern not given here) [CTNN2B-2479 LNA V1]”, “TLR7 100 nM (averaged NF-κB-Luciferase level relative to R848 condition)” value 0.957. Against it:
- CTTGGCTTCGTGGAGC (antisense; LNA-modified, pattern not given here) [MB21D1-520 LNA V1] — lower, 0.806
- GAAAGGTTATGCAAGG (antisense; LNA-modified, pattern not given here) [CTNN2B-916 LNA KL] — lower, 0.166
- GACTATACGCGCAATA (antisense; LNA-modified, pattern not given here) [NC5 LNA PS 3-10-3] — lower, 0.282
- GAGGTCTTGGCTTCGT (antisense; LNA-modified, pattern not given here) [MB21D1-525 LNA V1] — lower, 0.793
- GATGGCCTCCCATCTC (antisense; LNA-modified, pattern not given here) [HPRT LNA-331 V1] — lower, 0.558
- GCACACTTCGTACCCA (antisense; LNA-modified, pattern not given here) [CAMSAP1-4915 LNA V1] — lower, 0.657
- GCACTTCAGTCTGAGC (antisense; LNA-modified, pattern not given here) [MB21D1-719 LNA KL] — lower, 0.713
- GGAGGTCTTGGCTTCG (antisense; LNA-modified, pattern not given here) [MB21D1-526 LNA V1] — lower, 0.503
- GGCACTTTGCCTCCTT (antisense; LNA-modified, pattern not given here) [EGFR-2859 LNA V1] — lower, 0.774
- GGCTCGGCTTGCCTAC (antisense; LNA-modified, pattern not given here) [CAMSAP1-5594 LNA V1] — lower, 0.569
- GGTCATTACAATAGCT (antisense; LNA-modified, pattern not given here) [HPRT LNA-475 KL] — lower, 0.580
- GGTCTTGGCTTCGTGG (antisense; LNA-modified, pattern not given here) [MB21D1-523 LNA V1] — lower, 0.481
- GTCAAGGGCATATCCT (antisense; LNA-modified, pattern not given here) [HPRT LNA-732 KL] — lower, 0.650
- GTCCTTGCACGTGGCT (antisense; LNA-modified, pattern not given here) [EGFR-1015 LNA V1] — lower, 0.471
- GTCTCTGGAGCTTCCT (antisense; LNA-modified, pattern not given here) [CAMSAP1-2456 LNA V1] — lower, 0.477
- GTCTTCATCGGCCCTG (antisense; LNA-modified, pattern not given here) [CAMSAP1-2113 LNA V1] — lower, 0.641
- GTGATCTTGACATGCT (antisense; LNA-modified, pattern not given here) [EGFR-2790 LNA KL] — lower, 0.438
- GTGATGGCCTCCCATC (antisense; LNA-modified, pattern not given here) [HPRT LNA-333 V1] — lower, 0.665
- TACTTTCCGAGGTGTC (antisense; LNA-modified, pattern not given here) [CAMSAP1-1739 LNA KL] — lower, 0.738
- TCCACAATCAAGACAT (antisense; LNA-modified, pattern not given here) [HPRT LNA-551 KL] — lower, 0.863
- TCCATACCCAAGGCAT (antisense; LNA-modified, pattern not given here) [CTNN2B-2446 LNA V1] — higher, 1.056
- TCCGCCCAAAGGGAAC (antisense; LNA-modified, pattern not given here) [HPRT LNA-1027 KL] — lower, 0.860
- TCCTTGCACGTGGCTT (antisense; LNA-modified, pattern not given here) [EGFR-1014 LNA V1] — lower, 0.812
- TCGTGGGGTCCTTTTC (antisense; LNA-modified, pattern not given here) [HPRT LNA-660 V1] — lower, 0.540
- TCTTCATCGGCCCTGC (antisense; LNA-modified, pattern not given here) [CAMSAP1-2112 LNA V1] — lower, 0.820
- TCTTGGCTTCGTGGAG (antisense; LNA-modified, pattern not given here) [MB21D1-521 LNA V1] — higher, 1.033
- TGACAAAGATTCACTG (antisense; LNA-modified, pattern not given here) [HPRT LNA-1353 KL] — higher, 1.040
- TGACTGTCTTGAGGGT (antisense; LNA-modified, pattern not given here) [MB21D1-1483 LNA KL] — lower, 0.802
- TGCTCCTCGGTCTCCC (antisense; LNA-modified, pattern not given here) [CAMSAP1-1850 LNA V1] — lower, 0.751
- TGGTCCACAACCCCTT (antisense; LNA-modified, pattern not given here) [MB21D1-697 LNA V1] — higher, 1.008
- TGTCCTTGCACGTGGC (antisense; LNA-modified, pattern not given here) [EGFR-1016 LNA V1] — lower, 0.502

Same assay, conditions: ASO 500 nM; relative to R848 only, given as fraction

Point of comparison: “GTCCTTGCACGTGGCT (antisense; LNA-modified, pattern not given here) [EGFR-1015 LNA V1]”, “TLR7 500 nM (averaged NF-κB-Luciferase level relative to R848 condition)” value 0.251. Against it:
- CTTGGCTTCGTGGAGC (antisense; LNA-modified, pattern not given here) [MB21D1-520 LNA V1] — lower, 0.098
- GAAAGGTTATGCAAGG (antisense; LNA-modified, pattern not given here) [CTNN2B-916 LNA KL] — lower, 0.101
- GACTATACGCGCAATA (antisense; LNA-modified, pattern not given here) [NC5 LNA PS 3-10-3] — lower, 0.098
- GAGGTCTTGGCTTCGT (antisense; LNA-modified, pattern not given here) [MB21D1-525 LNA V1] — lower, 0.067
- GATGGCCTCCCATCTC (antisense; LNA-modified, pattern not given here) [HPRT LNA-331 V1] — lower, 0.119
- GCACACTTCGTACCCA (antisense; LNA-modified, pattern not given here) [CAMSAP1-4915 LNA V1] — lower, 0.221
- GCACTTCAGTCTGAGC (antisense; LNA-modified, pattern not given here) [MB21D1-719 LNA KL] — lower, 0.168
- GGAGGTCTTGGCTTCG (antisense; LNA-modified, pattern not given here) [MB21D1-526 LNA V1] — lower, 0.119
- GGCACTTTGCCTCCTT (antisense; LNA-modified, pattern not given here) [EGFR-2859 LNA V1] — higher, 0.668
- GGCTCGGCTTGCCTAC (antisense; LNA-modified, pattern not given here) [CAMSAP1-5594 LNA V1] — lower, 0.186
- GGTCATTACAATAGCT (antisense; LNA-modified, pattern not given here) [HPRT LNA-475 KL] — lower, 0.049
- GGTCTTGGCTTCGTGG (antisense; LNA-modified, pattern not given here) [MB21D1-523 LNA V1] — lower, 0.042
- GTCAAGGGCATATCCT (antisense; LNA-modified, pattern not given here) [HPRT LNA-732 KL] — lower, 0.142
- GTCTCTGGAGCTTCCT (antisense; LNA-modified, pattern not given here) [CAMSAP1-2456 LNA V1] — lower, 0.084
- GTCTTCATCGGCCCTG (antisense; LNA-modified, pattern not given here) [CAMSAP1-2113 LNA V1] — lower, 0.119
- GTGATCTTGACATGCT (antisense; LNA-modified, pattern not given here) [EGFR-2790 LNA KL] — lower, 0.060
- GTGATGGCCTCCCATC (antisense; LNA-modified, pattern not given here) [HPRT LNA-333 V1] — lower, 0.139
- TACTTTCCGAGGTGTC (antisense; LNA-modified, pattern not given here) [CAMSAP1-1739 LNA KL] — higher, 0.451
- TCCACAATCAAGACAT (antisense; LNA-modified, pattern not given here) [HPRT LNA-551 KL] — higher, 0.533
- TCCATACCCAAGGCAT (antisense; LNA-modified, pattern not given here) [CTNN2B-2446 LNA V1] — higher, 0.494
- TCCGCCCAAAGGGAAC (antisense; LNA-modified, pattern not given here) [HPRT LNA-1027 KL] — higher, 0.543
- TCCTTGCACGTGGCTT (antisense; LNA-modified, pattern not given here) [EGFR-1014 LNA V1] — higher, 0.482
- TCGTGGGGTCCTTTTC (antisense; LNA-modified, pattern not given here) [HPRT LNA-660 V1] — higher, 0.318
- TCTTCATCGGCCCTGC (antisense; LNA-modified, pattern not given here) [CAMSAP1-2112 LNA V1] — higher, 0.511
- TCTTGGCTTCGTGGAG (antisense; LNA-modified, pattern not given here) [MB21D1-521 LNA V1] — higher, 0.288
- TGACAAAGATTCACTG (antisense; LNA-modified, pattern not given here) [HPRT LNA-1353 KL] — higher, 0.430
- TGACTGTCTTGAGGGT (antisense; LNA-modified, pattern not given here) [MB21D1-1483 LNA KL] — lower, 0.150
- TGCTCCTCGGTCTCCC (antisense; LNA-modified, pattern not given here) [CAMSAP1-1850 LNA V1] — higher, 0.595
- TGGTCCACAACCCCTT (antisense; LNA-modified, pattern not given here) [MB21D1-697 LNA V1] — higher, 0.545
- TGGTGGCCACCCATCT (antisense; LNA-modified, pattern not given here) [CTNN2B-2479 LNA V1] — higher, 0.393
- TGTCCTTGCACGTGGC (antisense; LNA-modified, pattern not given here) [EGFR-1016 LNA V1] — lower, 0.199

From patent US20240384268A1, “Oligonucleotides” (Hudson Institute of Medical Research, priority 2021, published 2024)
